We go through 2 compounds from US12157741B2, “Macrocyclic inhibitors of DYRK1A” (DANA-FARBER CANCER INSTITUTE, INC., priority 2018, dated 2024).

Like-named read-outs stand apart in the source and are kept apart here.

Common to all, as to type: binding
Assay [1] addresses various enzymes (Homo sapiens, UniProt P78368). Particulars: compound 1 uM. As to the method: (§1) Ambit profiling was conducted in accordance with the manufacturer's instructions.
For assay [2], the target named is various enzymes (Homo sapiens, UniProt O00750). The settings on record: compound 1 uM. As to the method: as §1
various enzymes (Homo sapiens, UniProt O00750), sequence (O00750 whole entry): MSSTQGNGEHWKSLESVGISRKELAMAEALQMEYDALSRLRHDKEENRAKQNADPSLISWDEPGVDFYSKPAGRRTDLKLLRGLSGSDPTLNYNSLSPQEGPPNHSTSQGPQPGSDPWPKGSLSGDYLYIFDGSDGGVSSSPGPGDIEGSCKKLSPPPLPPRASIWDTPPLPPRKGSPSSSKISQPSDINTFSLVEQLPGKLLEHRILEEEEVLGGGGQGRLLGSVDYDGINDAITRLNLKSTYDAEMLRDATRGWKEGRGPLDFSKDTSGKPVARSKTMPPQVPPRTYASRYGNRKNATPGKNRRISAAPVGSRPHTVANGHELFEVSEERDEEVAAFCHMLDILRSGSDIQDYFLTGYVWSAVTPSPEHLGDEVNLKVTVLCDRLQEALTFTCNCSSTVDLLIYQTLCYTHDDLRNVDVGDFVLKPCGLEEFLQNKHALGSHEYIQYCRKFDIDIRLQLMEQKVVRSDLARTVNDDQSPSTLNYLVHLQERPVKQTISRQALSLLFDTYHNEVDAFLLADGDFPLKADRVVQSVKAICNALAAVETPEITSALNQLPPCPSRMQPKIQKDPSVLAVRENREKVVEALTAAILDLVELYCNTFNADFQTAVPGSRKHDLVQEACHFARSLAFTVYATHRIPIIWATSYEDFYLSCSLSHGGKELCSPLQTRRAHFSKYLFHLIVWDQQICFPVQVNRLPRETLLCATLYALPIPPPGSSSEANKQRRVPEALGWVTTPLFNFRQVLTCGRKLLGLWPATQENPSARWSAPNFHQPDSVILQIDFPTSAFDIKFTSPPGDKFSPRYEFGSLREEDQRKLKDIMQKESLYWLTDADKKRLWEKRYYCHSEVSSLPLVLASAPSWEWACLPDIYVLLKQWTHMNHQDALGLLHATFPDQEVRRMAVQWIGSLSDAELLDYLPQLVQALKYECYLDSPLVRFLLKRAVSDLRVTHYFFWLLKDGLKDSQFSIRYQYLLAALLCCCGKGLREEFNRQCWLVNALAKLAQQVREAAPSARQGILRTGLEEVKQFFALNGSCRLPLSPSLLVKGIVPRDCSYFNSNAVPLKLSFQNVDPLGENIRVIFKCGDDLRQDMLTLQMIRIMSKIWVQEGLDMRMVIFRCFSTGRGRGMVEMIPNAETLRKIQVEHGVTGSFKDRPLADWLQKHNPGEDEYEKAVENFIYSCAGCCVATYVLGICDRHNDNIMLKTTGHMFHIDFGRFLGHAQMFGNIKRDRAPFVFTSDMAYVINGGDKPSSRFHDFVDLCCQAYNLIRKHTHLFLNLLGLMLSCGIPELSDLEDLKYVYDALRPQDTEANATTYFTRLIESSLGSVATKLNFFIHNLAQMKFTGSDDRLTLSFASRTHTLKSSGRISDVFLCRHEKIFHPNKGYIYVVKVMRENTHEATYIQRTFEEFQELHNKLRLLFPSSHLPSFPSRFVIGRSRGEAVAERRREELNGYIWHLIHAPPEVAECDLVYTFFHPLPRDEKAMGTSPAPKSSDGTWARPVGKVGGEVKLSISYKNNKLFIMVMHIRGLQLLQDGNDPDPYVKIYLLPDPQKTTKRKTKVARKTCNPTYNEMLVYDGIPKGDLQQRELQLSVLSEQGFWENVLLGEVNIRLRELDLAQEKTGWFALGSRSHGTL
The target in assay [3] is various enzymes (Plasmodium falciparum, UniProt P61075). As to the method:
as §1

The target in assay [4] is T1, various enzymes (Homo sapiens, UniProt P36888).
T1 sequence (P36888 27-993): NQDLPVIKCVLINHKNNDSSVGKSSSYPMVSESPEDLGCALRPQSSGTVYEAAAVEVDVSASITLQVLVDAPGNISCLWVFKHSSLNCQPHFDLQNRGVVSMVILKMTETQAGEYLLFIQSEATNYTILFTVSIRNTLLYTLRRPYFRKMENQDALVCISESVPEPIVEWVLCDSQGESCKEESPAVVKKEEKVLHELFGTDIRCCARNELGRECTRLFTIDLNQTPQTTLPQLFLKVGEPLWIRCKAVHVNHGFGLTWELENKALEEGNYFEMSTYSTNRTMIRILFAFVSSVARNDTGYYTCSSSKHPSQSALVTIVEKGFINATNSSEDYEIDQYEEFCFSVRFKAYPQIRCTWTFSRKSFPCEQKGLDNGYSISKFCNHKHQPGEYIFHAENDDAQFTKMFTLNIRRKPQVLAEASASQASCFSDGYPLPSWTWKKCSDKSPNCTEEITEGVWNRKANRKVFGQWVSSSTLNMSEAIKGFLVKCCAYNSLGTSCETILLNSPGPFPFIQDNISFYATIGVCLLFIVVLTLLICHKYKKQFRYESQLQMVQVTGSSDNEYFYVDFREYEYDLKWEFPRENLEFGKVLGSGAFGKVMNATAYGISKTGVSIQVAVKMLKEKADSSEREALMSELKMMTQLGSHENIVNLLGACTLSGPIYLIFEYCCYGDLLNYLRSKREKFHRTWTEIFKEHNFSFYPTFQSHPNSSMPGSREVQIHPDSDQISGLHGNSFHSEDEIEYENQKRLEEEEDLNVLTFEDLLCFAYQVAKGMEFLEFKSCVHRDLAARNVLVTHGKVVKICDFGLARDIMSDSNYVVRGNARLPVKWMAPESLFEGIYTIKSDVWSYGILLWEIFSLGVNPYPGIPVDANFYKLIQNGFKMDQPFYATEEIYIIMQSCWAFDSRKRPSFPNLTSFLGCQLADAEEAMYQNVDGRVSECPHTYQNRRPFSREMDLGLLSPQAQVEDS
Particulars: compound 1 uM. As to the method: as §1

For assay [5], the target named is various enzymes (Homo sapiens, UniProt P10721, A829P). As to the method: as §1
The target of assay [6] is various enzymes (Homo sapiens, UniProt O15197). Particulars: compound 1 uM. As to the method: as §1
various enzymes (Homo sapiens, UniProt O15197), sequence (O15197 32-1021): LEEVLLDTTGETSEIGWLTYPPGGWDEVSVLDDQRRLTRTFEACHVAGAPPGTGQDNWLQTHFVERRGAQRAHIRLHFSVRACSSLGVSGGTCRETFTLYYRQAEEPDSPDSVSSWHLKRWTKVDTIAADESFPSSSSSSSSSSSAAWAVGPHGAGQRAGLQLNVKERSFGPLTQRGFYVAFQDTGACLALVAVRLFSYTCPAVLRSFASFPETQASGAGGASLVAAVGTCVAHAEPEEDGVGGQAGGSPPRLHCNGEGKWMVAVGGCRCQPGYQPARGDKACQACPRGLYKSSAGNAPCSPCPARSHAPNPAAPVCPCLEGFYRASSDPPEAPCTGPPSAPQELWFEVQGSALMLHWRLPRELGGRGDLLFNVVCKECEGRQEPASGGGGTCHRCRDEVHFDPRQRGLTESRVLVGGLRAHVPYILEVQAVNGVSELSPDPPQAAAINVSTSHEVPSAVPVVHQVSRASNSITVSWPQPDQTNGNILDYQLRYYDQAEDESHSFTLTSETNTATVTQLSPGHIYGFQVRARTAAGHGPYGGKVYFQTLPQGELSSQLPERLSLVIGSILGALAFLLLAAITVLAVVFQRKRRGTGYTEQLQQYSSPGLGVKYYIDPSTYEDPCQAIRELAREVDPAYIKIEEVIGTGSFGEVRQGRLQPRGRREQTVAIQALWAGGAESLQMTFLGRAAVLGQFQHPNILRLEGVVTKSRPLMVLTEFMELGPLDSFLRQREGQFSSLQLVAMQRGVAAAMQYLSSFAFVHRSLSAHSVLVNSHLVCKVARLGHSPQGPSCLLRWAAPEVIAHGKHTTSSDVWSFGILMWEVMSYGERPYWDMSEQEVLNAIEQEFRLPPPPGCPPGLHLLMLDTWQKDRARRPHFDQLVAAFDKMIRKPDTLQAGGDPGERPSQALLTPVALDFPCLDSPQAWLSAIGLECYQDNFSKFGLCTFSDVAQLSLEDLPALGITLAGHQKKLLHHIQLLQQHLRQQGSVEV
The target of assay [7] is various enzymes (Homo sapiens, UniProt P45983). Particulars: compound 1 uM. As to the method: as §1
various enzymes (Homo sapiens, UniProt P45983), sequence (P45983 whole entry): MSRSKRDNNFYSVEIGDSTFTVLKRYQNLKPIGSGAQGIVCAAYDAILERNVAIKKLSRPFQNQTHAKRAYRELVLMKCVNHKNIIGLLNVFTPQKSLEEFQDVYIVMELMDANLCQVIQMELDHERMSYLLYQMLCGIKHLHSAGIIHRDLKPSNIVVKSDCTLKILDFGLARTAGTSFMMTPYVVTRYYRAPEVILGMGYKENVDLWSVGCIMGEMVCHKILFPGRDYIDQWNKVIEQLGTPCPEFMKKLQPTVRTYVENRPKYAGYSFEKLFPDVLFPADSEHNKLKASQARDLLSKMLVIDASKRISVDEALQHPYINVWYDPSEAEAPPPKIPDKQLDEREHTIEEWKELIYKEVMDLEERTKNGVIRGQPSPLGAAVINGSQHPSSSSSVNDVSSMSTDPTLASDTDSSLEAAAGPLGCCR
Assay [8] addresses various enzymes (Homo sapiens, UniProt P45984). Particulars: compound 1 uM. As to the method:
as §1

Assay [9] addresses various enzymes (Homo sapiens, UniProt Q9P2K8, S808G). As to the method:
as §1

The target in assay [10] is T2, various enzymes (Homo sapiens, UniProt O75385).
T2 sequence (O75385 1-1050): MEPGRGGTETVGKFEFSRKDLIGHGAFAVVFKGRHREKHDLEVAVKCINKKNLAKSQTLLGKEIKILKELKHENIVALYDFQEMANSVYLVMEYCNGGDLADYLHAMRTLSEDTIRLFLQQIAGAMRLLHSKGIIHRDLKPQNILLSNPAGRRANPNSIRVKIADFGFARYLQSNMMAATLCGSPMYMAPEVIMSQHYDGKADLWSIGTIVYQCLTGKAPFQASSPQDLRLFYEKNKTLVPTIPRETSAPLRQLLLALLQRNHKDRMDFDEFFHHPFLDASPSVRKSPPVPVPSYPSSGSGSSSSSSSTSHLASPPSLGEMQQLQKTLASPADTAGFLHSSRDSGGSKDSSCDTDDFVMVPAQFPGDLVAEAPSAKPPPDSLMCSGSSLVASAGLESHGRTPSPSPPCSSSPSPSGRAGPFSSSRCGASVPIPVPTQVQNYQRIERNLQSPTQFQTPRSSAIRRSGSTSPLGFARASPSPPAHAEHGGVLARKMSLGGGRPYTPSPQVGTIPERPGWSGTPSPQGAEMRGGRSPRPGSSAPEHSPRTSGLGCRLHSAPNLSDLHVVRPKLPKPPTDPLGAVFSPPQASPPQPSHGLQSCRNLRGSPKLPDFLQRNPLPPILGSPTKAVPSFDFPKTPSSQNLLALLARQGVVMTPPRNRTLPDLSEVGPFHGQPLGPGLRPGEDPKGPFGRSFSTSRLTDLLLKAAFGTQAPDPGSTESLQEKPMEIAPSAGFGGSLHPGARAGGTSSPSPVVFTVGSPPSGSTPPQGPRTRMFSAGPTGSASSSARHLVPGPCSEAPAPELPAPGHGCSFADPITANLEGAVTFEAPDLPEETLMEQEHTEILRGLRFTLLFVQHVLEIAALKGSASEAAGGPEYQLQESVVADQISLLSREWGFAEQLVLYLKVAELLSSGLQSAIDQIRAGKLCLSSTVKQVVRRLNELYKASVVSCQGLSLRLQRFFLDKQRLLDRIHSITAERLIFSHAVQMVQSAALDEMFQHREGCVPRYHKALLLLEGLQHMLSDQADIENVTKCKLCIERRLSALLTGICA
The settings on record: compound 1 uM. As to the method: as §1

Assay [11] addresses various enzymes (Homo sapiens, UniProt O43293). Particulars: compound 1 uM. As to the method:
as §1

The target in assay [12] is various enzymes (Homo sapiens, UniProt Q99683). Particulars: compound 1 uM. As to the method: as §1
In assay [13] the target is various enzymes (Homo sapiens, UniProt O96013). The settings on record: compound 1 uM. As to the method: as §1
Assay [14] addresses various enzymes (Homo sapiens, UniProt Q8N752). The settings on record: compound 1 uM. As to the method:
as §1

For assay [15], the target named is various enzymes (Homo sapiens, UniProt P21127). The settings on record: compound 1 uM. As to the method: as §1
Assay [16] concerns the target various enzymes (Homo sapiens, UniProt P53667). Particulars: compound 1 uM. As to the method: as §1
Assay [17] concerns the target various enzymes (Homo sapiens, UniProt Q9NYY3). Particulars: compound 1 uM. As to the method:
as §1

various enzymes (Homo sapiens, UniProt P53667), sequence (P53667 whole entry): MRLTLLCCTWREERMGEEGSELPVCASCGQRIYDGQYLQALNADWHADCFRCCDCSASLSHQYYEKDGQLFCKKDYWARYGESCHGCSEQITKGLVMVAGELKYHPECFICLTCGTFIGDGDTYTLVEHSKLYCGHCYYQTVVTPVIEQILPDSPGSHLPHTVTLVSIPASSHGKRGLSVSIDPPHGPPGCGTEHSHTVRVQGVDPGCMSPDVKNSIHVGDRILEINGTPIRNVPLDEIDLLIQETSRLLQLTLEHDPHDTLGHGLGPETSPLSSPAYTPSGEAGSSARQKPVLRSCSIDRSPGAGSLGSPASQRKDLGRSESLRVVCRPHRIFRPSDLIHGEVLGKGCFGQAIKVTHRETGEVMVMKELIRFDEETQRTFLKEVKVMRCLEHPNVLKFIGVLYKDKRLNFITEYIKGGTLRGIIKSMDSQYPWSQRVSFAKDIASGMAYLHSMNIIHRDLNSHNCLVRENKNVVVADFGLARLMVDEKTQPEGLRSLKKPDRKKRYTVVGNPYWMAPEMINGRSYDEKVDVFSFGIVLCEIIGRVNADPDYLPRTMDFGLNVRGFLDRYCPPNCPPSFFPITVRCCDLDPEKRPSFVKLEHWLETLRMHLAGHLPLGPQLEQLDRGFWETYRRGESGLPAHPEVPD
various enzymes (Plasmodium falciparum, UniProt P61075), sequence (P61075 whole entry): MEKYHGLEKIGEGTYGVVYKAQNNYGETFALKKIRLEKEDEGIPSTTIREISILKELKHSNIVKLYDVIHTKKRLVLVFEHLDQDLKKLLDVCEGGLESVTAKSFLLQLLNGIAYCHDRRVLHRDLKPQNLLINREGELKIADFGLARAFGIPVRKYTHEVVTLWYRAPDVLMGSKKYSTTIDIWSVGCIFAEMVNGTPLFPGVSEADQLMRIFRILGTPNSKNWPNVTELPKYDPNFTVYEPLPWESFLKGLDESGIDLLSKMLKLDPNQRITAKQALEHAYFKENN
various enzymes (Homo sapiens, UniProt P78368), sequence (P78368 whole entry): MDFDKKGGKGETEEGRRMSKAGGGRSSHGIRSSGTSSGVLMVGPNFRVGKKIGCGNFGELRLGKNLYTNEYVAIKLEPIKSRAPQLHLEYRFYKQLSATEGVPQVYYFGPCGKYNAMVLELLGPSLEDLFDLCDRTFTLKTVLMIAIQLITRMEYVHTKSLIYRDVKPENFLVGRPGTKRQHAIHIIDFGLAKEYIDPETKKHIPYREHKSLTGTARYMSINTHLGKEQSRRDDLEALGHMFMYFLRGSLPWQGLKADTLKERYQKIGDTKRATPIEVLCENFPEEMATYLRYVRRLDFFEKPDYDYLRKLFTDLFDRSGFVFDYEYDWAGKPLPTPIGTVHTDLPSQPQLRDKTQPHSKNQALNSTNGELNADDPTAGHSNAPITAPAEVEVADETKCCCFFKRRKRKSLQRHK
various enzymes (Homo sapiens, UniProt O43293), sequence (O43293 whole entry): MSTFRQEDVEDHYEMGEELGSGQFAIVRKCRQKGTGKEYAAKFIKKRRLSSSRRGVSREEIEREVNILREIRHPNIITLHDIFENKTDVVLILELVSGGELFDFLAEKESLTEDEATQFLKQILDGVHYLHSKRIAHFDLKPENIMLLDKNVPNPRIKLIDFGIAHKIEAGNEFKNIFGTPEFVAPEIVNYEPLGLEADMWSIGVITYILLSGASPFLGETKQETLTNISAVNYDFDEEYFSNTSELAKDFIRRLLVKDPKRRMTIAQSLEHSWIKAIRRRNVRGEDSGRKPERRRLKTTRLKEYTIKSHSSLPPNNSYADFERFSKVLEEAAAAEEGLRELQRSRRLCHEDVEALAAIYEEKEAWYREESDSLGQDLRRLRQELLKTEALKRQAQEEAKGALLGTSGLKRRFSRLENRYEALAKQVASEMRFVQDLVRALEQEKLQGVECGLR

For the compound `COc1c2c(nn1C)CN(C(C)C)C(=O)CCCn1cc(c(C(F)(F)F)n1)-c1c[nH]c3ncc-2cc13` [Compound 50, (Z)-5-isopropyl-35-methoxy-31-methyl-13-(trifluoromethyl)-11H,21H,31H-5-aza-2(3,5)-pyrrolo[2,3-b]pyridina-1(4,1),3(4,3)-dipyrazolacyclononaphan-6-one], the “Ambit profiling: CSNK1G2” value at various enzymes [1] was determined as 83. The “Ambit profiling: PIK3C2B” value at various enzymes [2] is 100. Besides, on various enzymes [3], the “Ambit profiling: PFPK5(P. falciparum)” value was 79. Further, on various enzymes [4], the “Ambit profiling: FLT3” value was found to be 1.1 and the “Ambit profiling: FLT3-autoinhibited” value came to 6.4. The “Ambit profiling: KIT(A829P)” value at various enzymes [5] is 19. Also, at various enzymes [6], the “Ambit profiling: EPH86” value is listed as 0.7. The “Ambit profiling: JNK1” value on various enzymes [7] is 4.1. Besides, the “Ambit profiling: JNK2” value on various enzymes [8] was 7.5. Also, the “Ambit profiling: GCN2(Kin.Dom.2, S808G)” value on various enzymes [9] came to 100. The “Ambit profiling: ULK1” value on various enzymes [10] was 93. For the same compound, on various enzymes [11], the “Ambit profiling: DAPK3” value came out at 71. For the same compound, at various enzymes [12], the “Ambit profiling: ASK1” value came out at 100. The “Ambit profiling: PAK4” value at various enzymes [13] worked out at 91. At various enzymes [14], the “Ambit profiling: CSNK1A1L” value is reported as 67. Also, the “Ambit profiling: CDC2L1” value at various enzymes [15] is listed as 73. On various enzymes [16], the “Ambit profiling: LIMK1” value stood at 91. Also, the “Ambit profiling: PLK2” value at various enzymes [17] is recorded as 95.

Turning to `CC(C)N1Cc2nn(C)cc2-c2cnc3[nH]cc(c3c2)-c2cn(nc2C(F)(F)F)CCCC1=O` [Compound 45, (Z)-5-isopropyl-31-methyl-13-(trifluoromethyl)-11H,21H,31H-5-aza-2(3,5)-pyrrolo[2,3-b]pyridina-1(4,1),3(4,3)-dipyrazolacyclononaphan-6-one], the “Ambit profiling: CSNK1G2” value at various enzymes [1] was 100. Also, the “Ambit profiling: PIK3C2B” value at various enzymes [2] stood at 92. The “Ambit profiling: PFPK5(P. falciparum)” value at various enzymes [3] (compound 1 uM) is listed as 82. For the same compound, at various enzymes [4], the “Ambit profiling: FLT3” value was 0 and the “Ambit profiling: FLT3-autoinhibited” value came to 21. Besides, the “Ambit profiling: KIT(A829P)” value at various enzymes [5] (compound 1 uM) is 14. For the same compound, the “Ambit profiling: EPHB6” value at various enzymes [6] amounted to 4.8. The “Ambit profiling: JNK1” value at various enzymes [7] was 18. In addition, on various enzymes [8], the “Ambit profiling: JNK2” value was 21. The “Ambit profiling: GCN2(Kin.Dom.2, S808G)” value on various enzymes [9] (compound 1 uM) is listed as 100. The “Ambit profiling: ULK1” value on various enzymes [10] came out at 75. Moreover, the “Ambit profiling: DAPK3” value at various enzymes [11] is listed as 99. Besides, the “Ambit profiling: ASK1” value on various enzymes [12] was found to be 100. For the same compound, the “Ambit profiling: PAK4” value at various enzymes [13] worked out at 76. At various enzymes [14], the “Ambit profiling: CSNK1A1L” value is listed as 100. Also, the “Ambit profiling: CDC2L1” value on various enzymes [15] is 100. Further, at various enzymes [16], the “Ambit profiling: LIMK1” value is on record as 93. At various enzymes [17], the “Ambit profiling: PLK2” value turned out to be 90.
